Data: US6458872B1, “Benzotriazole UV absorbers having enhanced durability” (Ciba Specialty Chemicals Corporation, priority 1997, dated 2002)
Entries after “also recorded” stand apart in the source; their conditions may differ.

How the values were obtained:
[1] = UV absorption data (Example 74); type: physicochemical; design: ε @ λ max: unit not given beside the values
[2] = Yellowness color of solutions in butyl acetate, Macbeth Color-Eye (Example 75); type: physicochemical; settings: 30 mg/100 mL in butyl acetate; for DE: corresponding Yellowness Index value; for b: yellowness, Macbeth Color-Eye
Protocol: The following examples show the difference in color between some of the instant compounds as measured by a Macbeth Color-Eye instrument at a concentration of 30 mg/100 mL in butyl acetate. […] In the table, the compounds are listed by increasing b value. The instrument measures yellowness as b and DE is the corresponding Yellowness Index value.

[3] = UV absorption data (Example 74); type: physicochemical; settings: for Absorbance @ 375 nm: 20 mg/l concentrations, not the molar extinction values
Protocol: In the following examples the absorbance at 375 nm is reported for 20 mg/l concentrations. This is not the molar extinction values.

[4] = Durability in polycarbonate film, 2000 hours (Example 81); type: physicochemical; settings: for % Loss / Absorbance (max) Loss units: 2000 hrs; for % Loss / Absorbance (max) Loss units / Absorbance (max) 2000 hrs: BB 2.19 wt %, J 1.81 wt %; for Absorbance (max) 0 hrs: BB 2.19 wt % (352 nm), J 1.81 wt % (344 nm)
Protocol: The durability of representative benzotriazoles in thermoplastic substrates is determined by incorporating various test compounds into solvent cast films of poly(vinyl chloride), polycarbonate and polystyrene resins. The free standing films are mounted into cardboard holders, secured in metal frames and exposed in an Atlas […] […] Loss of UV absorber is determined by monitoring the loss of diagnostic UV absorption as described earlier. Performance is measured by a change in color or the physical integrity of the film. Polycarbonate flake (LEXAN® 145, General Electric) is dissolved in methylene chloride at room temperature along with between 1 and 3% by weight of test benzotriazole, based on the polycarbonate. Films are cast using a calibrated drawdown bar to prepare 1 mil thick film after drying. […] Weather-meter.

[5] = Loss of UV absorber from high solids thermoset acrylic melamine clear coat, Xenon-Arc X180 cycle (Example 78); type: physicochemical; settings: for durability (low loss rate absorbance values after exposure): in words, summary of the tables of Example 78
Source text: Following the general procedure of Example 77, a number of additional benzotriazole test compounds are incorporated into a high solids thermoset acrylic melamine resin at such concentrations between 1.93 and 3% by weight to give equal molar concentrations of test benzotriazole in equal film thickness, and sufficient to give a starting absorbance of approximately 2.0 absorbance units.
The test discs are exposed in a Xenon-Arc Weather-Ometer at X180 cycle (0.45 Watts/M^2). The initial UV absorbance is measured followed by measurements at roughly 250 hour intervals for the first 2000 hours and every 500 hours thereafter. Each clear coat also contains 1% by weight of a hindered amine light stabilizer, bis-(1-octyloxy-2,2,6,6-tetramethylpiperidin-4-yl) sebacate, as well.

[6] = Loss of UV absorber from high solids thermoset acrylic clear coat, Xenon Arc Weather-Ometer (Example 77); type: physicochemical; settings: after 1211 hours Xenon arc exposure; clear coat with 1% hindered amine; UV absorber at 5 mmol % by weight
Protocol: To ascertain the effect on thermal durability and loss rate from a high solids thermoset acrylic coating of various 2H-benzotriazole UV absorbers substituted by a variety of electron withdrawing and electron donating groups, the following tests are carried out.
A high solids thermoset acrylic clear coat is prepared by mixing an experimental acrylic polyol resin and hexamethoxymethylmelamine (Resimene® 747, Monsanto) at a solids ratio of 60/40. The dodecylbenzene sulfonic acid catalyst (Nacure® 5225; King Industries) is added at 0.70% by weight. A flow aid Modaflow® (Monsanto) is added at 0.25% by weight to form a model acrylic melamine resin system.
The model clear coat is reduced with xylene to a viscosity of 26-27 second using a Zahn #2 cup and applied via a conventional air spray at 50 psi (3.5 Kg/cm^2) over a 1″×3″ (2.54 cm×7.62 cm) quartz slide. Cure is achieved by baking the slide for 30 minutes at 260° F. (127° C.). The clear coat is stabilized with 1% by weight of a hindered amine light stabilizer, bis-(1-octyloxy-2,2,6,6-tetramethylpiperidin-4-yl)sebacate, (TINUVIN® 123, Ciba-Geigy). The various test benzotriazole UV absorbers are incorporated at the 5 mmol % by weight in the clear coat. The film thickness on the quartz slides range from 1.15 to 1.41 mils (0.029 to 0.036 mm).
The films on the quartz slides are weathered according to the following conditions in Xenon Arc Weather-Ometer with a controlled irradiance at 6500 W, using inner quartz and outer borosilicate S-type filter. The irradiation cycle is as follows: 40 minutes of straight irradiation with no water spray, followed by 20 minutes of light plus front spray, followed by 60 minutes of light irradiation and finally by 60 minutes dart plus rear spray (condensation). The setting is at 0.55 W/M^2 at 340 nm, 1.98 kJ/hour. In the light cycle the black panel temperature is controlled at 70±2° C. The relative humidity in the light cycle is in the range of 50-55% and in the dark cycle 100%. The absorbance of the long wavelength UV band as a function of Xenon arc weathering hours are recorded in the table below.
To follow the loss of UV absorbers from the clear coats, UV spectra are measured initially and after weathering at regular time intervals. The UV spectrophotometer measures absorbance linearly up to 5.5 absorbance units using a reference beam attenuation technique.
This is tested by following the ratio of absorbance of the band at about 300 nm and the band at about 340 nm.
The data in the table below are based on formula A after 1211 hours of exposure of the clear coats containing the test benzotriazole UV absorbers.

[7] = Loss of UV absorber from high solids thermoset acrylic melamine resin, 1002 hours (Example 79); type: physicochemical; settings: 1002 hours exposure; starting absorbance approximately 2.0
Protocol: Following the general procedure of Example 77, representative benzotriazole test compounds are incorporated into a high solids thermoset acrylic melamine resin at concentrations between 1.93 and 3% by weight to give equal molar concentrations of the test benzotriazole in equal film thickness and sufficient to give a starting absorbance of approximately 2.0 absorbance units. The test samples are exposed as described in Example 77 for 1002 hours.

[8] = after 1253 hours of exposure, starting absorbance approximately 2.0, 1% hindered amine

| SMILES | ε @ λ max [1] | λ max nm [1] [nm] | DE [2] | b [2] | Absorbance @ 375 nm [3] | Units Absorbance Loss ([5]; after 1264 hours of exposure) | Units Absorbance Loss ([5]; after 1518 hours of exposure) | also measured |
| --- | --- | --- | --- | --- | --- | --- | --- | --- |
| CC(C)(C)CC(C)(C)c1ccc(O)c(-n2nc3ccc(C(F)(F)F)cc3n2)c1 [BB, 5-trifluoromethyl-2-(2-hydroxy-5-tert-octylphenyl)-2H-benzotriazole] | 14,000 | 348 | 0.27 | 0.20 | 0.33 |  |  | % Loss [4]: 0.6%; Absorbance (max) Loss units [4]: 0.016; Absorbance (max) 0 hrs [4]: 2.654; Absorbance (max) 2000 hrs [4]: 2.638 |
| CC(C)(C)CC(C)(C)c1cc(-n2nc3ccc(S(=O)(=O)c4ccccc4)cc3n2)c(O)c(C(C)(C)c2ccccc2)c1 [Compound U, 5-phenylsulfonyl-2-(2-hydroxy-3-α-cumyl-5-tert-octylphenyl)-2H-benzotriazole] | 17,300 | 362 | 4.42 | 3.75 | 0.50 | 0.0944 | 0.1114 | durability (low loss rate absorbance values after exposure) [5]: especially durable |
| Oc1ccc(C(F)(F)F)cc1-n1nc2ccccc2n1 [EE, 2-(2-hydroxy-5-trifluoromethylphenyl)-2H-benzotriazole] | 20,700 | 328 |  |  | 0.03 |  |  | melting point: 119 to 120 °C; red region absorbance ([3]; in words, upper regions (above 350 nm) of the UV spectra): poor red region absorbance |
| CC(C)(C)c1cc(CCC(=O)O)cc(-n2nc3ccc(C(F)(F)F)cc3n2)c1O [Example 39, 3-(5-Trifluoromethyl-2H-benzotriazol-2-yl)-5-tert-butyl-4-hydroxyhydrocinnamic Acid] |  |  |  |  |  |  |  | melting point: 166 °C |
| CC(C)(C)CC(C)(C)c1ccc(O)c(-n2nc3ccccc3n2)c1 [J] |  |  |  |  |  |  |  | Units Absorbance Loss [6]: 0.4134; % Loss [4]: 7.5%; Absorbance (max) Loss units [4]: 0.184; Absorbance (max) 0 hrs [4]: 2.454; Absorbance (max) 2000 hrs [4]: 2.270 |
| CC(C)(C)CC(C)(C)c1cc(-n2nc3ccccc3n2)c(O)c(C(C)(C)c2ccccc2)c1 [Q, 2-(2-hydroxy-3-α-cumyl-5-tert-octylphenyl)-2H-benzotriazole] | 16,500 | 345 | 0.07 | −0.02 | 0.28 | 0.2293 | 0.2662 | Units Absorbance Loss [6]: 0.2492; Units Absorbance Loss [5, 8]: 0.2351; Units Absorbance Loss ([5]; after 1489 hours of exposure): 0.287; Units Absorbance Loss ([5]; after 2521 hours of exposure): 0.4054; Units of Absorbance Loss [7]: 0.28 |
| CC(C)(C)CC(C)(C)c1cc(-n2nc3ccc(C(F)(F)F)cc3n2)c(O)c(C(C)(C)c2ccccc2)c1 [S, 5-trifluoromethyl-2-(2-hydroxy-3-α-cumyl-5-tert-octylphenyl)-2H-benzotriazole] | 15,000 | 348 | 1.28 | 1.05 | 0.35 | 0.0921 | 0.1116 | Units Absorbance Loss [5, 8]: 0.1271; Units Absorbance Loss ([5]; after 1489 hours of exposure): 0.1547; Units Absorbance Loss ([5]; after 2521 hours of exposure): 0.2192; durability (low loss rate absorbance values after exposure) [5]: significantly more durable; also recorded: especially durable |
| CCCCOc1ccc(-n2nc3ccccc3n2)c(O)c1 [Z, 2-(2-hydroxy-4-n-butoxyphenyl)-2H-benzotriazole] |  |  |  |  |  |  |  | Units of Absorbance Loss [7]: 1.58 |
